How the values were obtained:
rhCatC = rhCatC (Homo sapiens (Human), UniProt P53634); assay: In vitro enzyme activity experiment of rhCatC (AMC fluorescence assay); format: biochemical; details: rhCatC enzyme, substrate H-Gly-Arg-AMC; read-out: Biological activity IC50
Experimental: The in vitro inhibitory effect of compounds and positive control on rhCatC enzyme activity was evaluated by AMC fluorescence assay. rhCatC can catalyze the reaction of substrate peptide H-Gly-Arg-AMC, and release AMC to generate fluorescence. […] The compound was diluted with DMSO to a 384-well echo plate at a concentration of 100× of the highest concentration at the beginning of the experiment. 0.2 μL of the diluted compound was pipetted to a black-bottomed 384-well reaction plate for later use. The negative control well was DMSO. • 2) Activation of rhCatC: RhCatC and rhCatL were added to the activation buffer to obtain a final concentration of rhCatC of 100 μg/mL and a final concentration of rhCatL of 20 μg/mL, and incubated at room temperature for 1 hour. • 3) Enzyme activity reaction: Activated rhCatC was diluted to 0.4 μg/mL with the reaction buffer. The solution was added to the black-bottom 384-well reaction plate ([…]). 10 μL of the buffer was added for the vehicle control group. The plate containing compounds in its wells was incubated at room temperature for 30 minutes.
The RLU data was read, the inhibition rate was calculated, and the IC50 value was calculated according to the fitting curve of concentration and inhibition rate.

[1] = Pharmacokinetic experiment in beagle dogs; format: in vivo; design: clearance: unit not given here; details: for Vd: read-out: Vdss
Experimental: Beagle dogs (male, 9 to 11 kg)
Pharmacokinetic characteristics of the compounds in beagle dogs after intravenous or oral administration were determined by standard protocols. In the experiment, the compound was formulated into a clear solution, and administered to beagle dogs by single intravenous injection or oral administration. The intravenous injection vehicle was a mixed vehicle of 5% dimethyl sulfoxide and 95% (28% aqueous hydroxypropyl beta cyclodextrin solution). The oral vehicle is a solution of 0.5% hydroxypropylmethylcellulose and 0.1% polysorbate 80 in water. Whole blood samples within 24 hours were collected, and the supernatants were separated to obtain plasma samples. The sample was centrifuged to obtain the supernatant, to which an equal volume of water was added. The resulting solution was centrifuged to obtain the supernatant, which was injected into the analysis machine. Quantitative analysis of plasma concentration was carried out by LC-MS/MS analysis method, and the pharmacokinetic parameters, such as peak concentration (Cmax), clearance (Cl), half-life (T1/2), volume of distribution (Vdss) and area under the drug-time curve (AUC), were calculated.

[2] = system: neutrophil elastase (NE) downstream of CatC; assay: Target binding model in C57BL/6 mice: NE protease activity in bone marrow; format: in vivo; details: 3 mg/kg PO, 8 days, bone marrow cell lysate, female C57BL/6 mice
Experimental: 1. Experimental protocol: In order to investigate the inhibitory effect of the compounds on the activity of neutrophil elastase (hereinafter referred to as NE) downstream of CatC in neutrophil, female C57BL/6 mice were administered according to the following table:
2. Experimental procedures: The compound or vehicle control was administered continuously for 8 days. On Day 1 to 7, the compound or vehicle control was administered twice a day with an administration interval of 6 hours. On Day 8, the test material was collected one hour after the first administration. […] The sample was washed once with Dulbecco's phosphate buffer, centrifuged at 400 g for 5 minutes and counted. […] The supernatant was stored at −80° C. until protease activity was determined. The protease activity in the cell lysates of each group was determined using the NE protease activity detection kit (Sigma-Aldrich MAK246). 7.5 μL of 3× diluted bone marrow cell lysate or 7.5 μL of double-diluted NE standard and 7.5 μL of 25× diluted substrate were added to a 384-well plate, and the NE protease activity was immediately monitored in real-time at Ex 380 nm and Em 500 nm for 30 minutes. The RFU within the linear reaction time was determined, and the NE protease activity (ng/ml) in the sample was calibrated by the standard curve.

CatC = CatC (Homo sapiens (Human), UniProt P53634); assay: In vitro CatC cell activity experiment in U937 cell line; format: cell-based
Chain of CatC (P53634 25-134): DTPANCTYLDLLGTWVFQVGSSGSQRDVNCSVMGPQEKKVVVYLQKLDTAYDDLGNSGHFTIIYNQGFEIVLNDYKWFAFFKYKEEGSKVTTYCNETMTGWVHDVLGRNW
Chain of CatC (P53634 231-394): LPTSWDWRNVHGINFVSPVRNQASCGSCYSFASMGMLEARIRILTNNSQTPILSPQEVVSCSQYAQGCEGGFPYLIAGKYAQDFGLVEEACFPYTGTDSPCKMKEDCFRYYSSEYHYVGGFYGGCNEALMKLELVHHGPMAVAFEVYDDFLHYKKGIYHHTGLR
Chain of CatC (P53634 395-463): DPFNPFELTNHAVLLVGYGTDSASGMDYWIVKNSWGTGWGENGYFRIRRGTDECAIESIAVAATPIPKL
Experimental: The U937 cell line was resuscitated and passed for about two generations, and the cell line with good growth status was selected. The cell suspension was transferred into a centrifuge tube, and centrifuged at 800 to 1000 rpm for 3 to 5 minutes. The supernatant was discarded. An appropriate volume of culture medium was added to the centrifuge tube, which was gently pipetted to resuspend the cells evenly. The cells were counted using a Vi-Cell XR cell counter. The cell suspension was adjusted to an appropriate concentration. The cell suspension was added into a 384-well plate ([…]). The compound was formulated into a 10 mM solution with DMSO. The compound was diluted with DMSO to obtain a 1 mM solution, and a semi-logarithmi dilution was carried out by HPD300 with DMSO to obtain 10 concentrations. Gly-Phe-AFC was formulated into a 35 mM solution with DMSO and divided. […] After adding the compounds and incubating for 1 hour in an incubator, substrate-AFC was added (12.5 μL was added to the plate). The plate was incubated for 30 minutes and read. […] XLFit was used to draw the drug efficacy inhibition rate curve and calculate the IC50 value. 4-parameter model [fit=(A+((B−A)/(1+((C/x)^D))))] was used.

[3] = Pharmacokinetic experiment in BALB/c mice; format: in vivo; details: for AUC(0-t) / clearance / half-life / Vd / Tmax / bioavailability: male, mouse, plasma; for Vd: read-out: Vdss
Experimental: BALB/c mice (male, 20 to 30 g, fasting)
Pharmacokinetic characteristics of the compounds in rodent after intravenous or oral administration were determined by standard protocols. In the experiment, the compound was formulated into a clear solution, and administered to mice by single intravenous injection or oral administration. The intravenous injection vehicle was a mixed vehicle of 500 dimethyl sulfoxide and 9500 (3000 aqueous sulfobutylether cyclodextrin solution). The oral vehicle is a solution of 0.50% hydroxypropylmethylcellulose and 0.10% polysorbate 80 in water. Whole blood samples within 24 hours were collected, and the supernatants were separated to obtain plasma samples. Quantitative analysis of plasma concentration was carried out by LC-MS/MS analysis method, and the pharmacokinetic parameters, such as peak concentration (Cmax), clearance (Cl), half-life (T1/2), volume of distribution (Vdss) and area under the drug-time curve (AUC), were calculated.

Chain of rhCatC (P53634 25-134): as the sequence (P53634 25-134) above
Chain of rhCatC (P53634 231-394): as the sequence (P53634 231-394) above
Chain of rhCatC (P53634 395-463): as the sequence (P53634 395-463) above

## N#Cc1ccc2c(c1)COc1cc(C[C@@H](C#N)NC(=O)[C@@H]3CNCCCO3)c(F)cc1-2 [Compound 14, (S)—N—((S)-1-Cyano-2-(8-cyano-2-fluoro-6H-benzo[c]chromen-3-yl)ethyl)-1,4-oxazepane-2-carboxamide]
rhCatC
  IC50: 5.31 nM
[1]
  PK properties compared with AZD7986: better PK properties than AZD7986
[1]; IV
  decrease of clearance rate compared with AZD7986: about 3 times
  increase of intravenous exposure compared with AZD7986: 3.4 times
[1]; PO
  increase of oral exposure compared with AZD7986: 3.0 times
[1]; male, dog, plasma, IV, 1 mg/kg
  AUC(0-t): 4790 ng·h/mL
  clearance: 0.172
  half-life: 10.2 h
  Vd: 2.29 L/kg
[1]; male, dog, plasma, PO, 2 mg/kg
  AUC(0-t): 10900 ng·h/mL
  Tmax: 3.33 h
  bioavailability: 100%
  half-life: 12.3 h
[2]
  inhibitory rate of NE protease activity compared with AZD7986: higher inhibitory rate of NE protease activity than the reference compound AZD7986
CatC
  IC50: 6.1 nM
[3]
  PK properties compared with AZD7986: better PK properties than AZD7986
  oral bioavailability compared with AZD7986: increased
[3]; IV
  decrease of clearance rate compared with AZD7986: about 1.8 times
  increase of intravenous exposure compared with AZD7986: 1.8 times
[3]; PO
  increase of oral exposure compared with AZD7986: 3.1 times
[3]; IV, 2 mg/kg
  AUC(0-t): 3770 ng·h/mL
  clearance: 8.49 mL/min/kg
  half-life: 3.08 h
  Vd: 1.75 L/kg
[3]; PO, 5 mg/kg
  AUC(0-t): 6610 ng·h/mL
  Tmax: 0.5 h
  bioavailability: 65.3%
  half-life: 2.69 h

## Cn1c(=O)oc2ccc(-c3ccc(C[C@@H](C#N)NC(=O)[C@@H]4CNCCCO4)cc3)cc21 [AZD7986, reference compound]
[1]; male, dog, plasma, IV, 1 mg/kg
  AUC(0-t): 1410 ng·h/mL
  half-life: 13.5 h
  Vd: 9.26 L/kg
[1]; male, dog, plasma, PO, 2 mg/kg
  AUC(0-t): 3670 ng·h/mL
  Tmax: 1.67 h
  bioavailability: 104%
  half-life: 15.3 h
[3]; IV, 2 mg/kg
  AUC(0-t): 2120 ng·h/mL
  clearance: 15.1 mL/min/kg
  half-life: 2.74 h
  Vd: 2.34 L/kg
[3]; PO, 5 mg/kg
  AUC(0-t): 2130 ng·h/mL
  Tmax: 1.5 h
  bioavailability: 40.2%
  half-life: 3.18 h

## N#Cc1ccc2c(c1)-c1cc(F)c(C[C@@H](C#N)NC(=O)[C@@H]3CNCCCO3)cc1OC2 [Compound 32, (S)—N—((S)-1-Cyano-2-(9-cyano-2-fluoro-6H-benzo[c]chromen-3-yl)ethyl)-1,4-oxazepane-2-carboxamide]
rhCatC
  IC50: 13 nM
[2]
  inhibitory rate of NE protease activity compared with AZD7986: higher inhibitory rate of NE protease activity than the reference compound AZD7986
CatC
  IC50: 7 nM

From patent publication US20240083888A1, “SMALL MOLECULE INHIBITOR FOR CATHEPSIN C AND MEDICINAL USE THEREOF” (REISTONE BIOPHARMA COMPANY LIMITED, priority 2020, published 2024)
